Columns and labels:
[1] = system: MV-4-11 cells; experiment: Her2 degradation Method 2: MV-4-11 cell survival, Cell Counting Kit-8 (Table 2: inhibition of Hsp90); assay type: cell-based; conditions: Homo sapiens, MV4-11, 72 hours, cell survival by Cell Counting Kit-8, text calls it IC50 for Her2 degradation, read-out: IC50 range of compounds of the invention for inhibition of Hsp90, IC50
Experimental: MV-4-11 cells (20,000 cells/well) were cultured in 96-well plates and maintained at 37° C. for several hours. The cells were treated with a compound of the invention or 17AAG (a positive control) at various concentrations and incubated at 37° C. for 72 hours. Cell survival was measured with Cell Counting Kit-8 (Dojindo Laboratories, Cat. # CK04).

[2] = system: Her2; experiment: Degradation of Her2 in BT-474 cells, Method 1 (Western blot); assay type: cell-based, human; conditions: 0.5 μM, overnight, positive control
Experimental: Human high-Her2 breast carcinoma BT474 (HTB-20), SK-BR-3 (HTB-30) and MCF-7 breast carcinoma (HTB-22) from American Type Culture Collection, VA, USA were grown in Dulbecco's modified Eagle's medium with 4 mM L-glutamine and antibiotics (100 IU/ml penicillin and 100 μg/ml streptomycine; GibcoBRL). To obtain exponential cell growth, cells were trypsinized, counted and seeded at a cell density of 0.5×10^6 cells/ml regularly, every 3 days. All experiments were performed on day 1 after cell passage.
BT-474 cells are treated with 0.5 μM, 2 μM, or 5 μM of 17AAG (a positive control) or 0.5 μM, 2 μM, or 5 μM of a compound of the invention overnight in DMEM medium. After treatment, each cytoplasmic sample is prepared from 1×10^6 cells by incubation of cell lysis buffer (#9803, Cell Signaling Technology) on ice for 10 minutes. The resulting supernatant used as the cytosol fractions is dissolved with sample buffer for SDS-PAGE and run on a SDS-PAGE gel, blotted onto a nitrocellulose membrane by using semi-dry transfer. Non-specific binding to nitrocellulose is blocked with 5% skim milk in TBS with 0.5% Tween at room temperature for 1 hour, then probed with anti-Her2/ErB2 mAb (rabbit IgG, #2242, Cell Signaling) and anti-Tubulin (T9026, Sigma) as housekeeping control protein. […]

SMILES | IC50 [1] | degradation of Her2 [2]
COc1ccc(-n2c(C(N)=O)nnc2-c2cc3c(cc2O)OCC3)cc1 [Compound 3, 5-(6-hydroxy-2,3-dihydrobenzofuran-5-yl)-4-(4-methoxyphenyl)-4H-1,2,4-triazole-3-carboxamide] | 20 to 50 µM | 
C=CCNC1=C2C[C@@H](C)C[C@H](OC)[C@H](O)[C@@H](C)/C=C(\C)[C@H](OC(N)=O)[C@@H](OC)/C=C\C=C(/C)C(=O)NC(=CC1=O)C2=O [Compound 17AAG, 17-allylamino-17-demethoxygeldanamycin] |  | partial degradation
NC(=O)c1nnc(-c2cc3c(cc2O)OCO3)n1-c1ccc(N2CCOCC2)cc1 [Compound 1, 5-(6-hydroxybenzo[d][1,3]-dioxol-5-yl)-4-(4-morpholinophenyl)-4H-1,2,4-triazole-3-carboxamide] | 20 to 50 µM | 
COc1ccc(-n2c(C(N)=O)nnc2-c2cc3c(cc2O)OCCC3)cc1 [Compound 4, 5-(7-hydroxychroman-6-yl)-4-(4-methoxyphenyl)-4H-1,2,4-triazole-3-carboxamide] | > 50 µM | 
COc1ccc(-n2c(C(N)=O)nnc2-c2cc3c(cc2O)CCC3)cc1 [Compound 5, 5-(6-hydroxy-2,3-dihydro-1H-inden-5-yl)-4-(4-methoxyphenyl)-4H-1,2,4-triazole-3-carboxamide] | 10 to 20 µM | 
NC(=O)c1nnc(-c2cc3c(cc2O)OCCC3)n1-c1ccc2c(c1)OCO2 [Compound 2, 4-(benzo[d][1,3]dioxol-5-yl)-5-(7-hydroxychroman-6-yl)-4H-1,2,4-triazole-3-carboxamide] | ≤ 10 µM | 
COc1ccc(-n2c(C(N)=O)nnc2-c2c(O)ccc3c2CCCC3)cc1 [Compound 6, 5-(2-hydroxy-5,6,7,8-tetrahydronaphthalen-1-yl)-4-(4-methoxyphenyl)-4H-1,2,4-triazole-3-carboxamide] | 20 to 50 µM | 
COc1ccc(-n2c(C(N)=O)nnc2-c2c(O)ccc3ccccc23)cc1 [Compound 7, 5-(2-hydroxynaphthalen-1-yl)-4-(4-methoxyphenyl)-4H-1,2,4-triazole-3-carboxamide] | 20 to 50 µM | 
COc1ccc(-n2c(C(N)=O)nnc2-c2ccc3c(c2O)CCCC3)cc1 [Compound 8, 5-(1-hydroxy-5,6,7,8-tetrahydronaphthalen-2-yl)-4-(4-methoxyphenyl)-4H-1,2,4-triazole-3-carboxamide] | > 50 µM | 
